According to the supplement of paper PMC13380429:

What was measured:
Conditions in all cases: 72 h
HepG2 [1] = assay: cell viability relative to DMSO; higher = less toxic
Vero E6 [2] = assay: as above
Calu-3 [3] = assay: as above
U2OS [4] = assay: as above
Caco-2 [5] = assay: as above
HepG2 [6] = assay: drug sensitivity score (DSS) for viability; higher = more toxic; extreme values may be limits of the assay
Vero E6 [7] = assay: as above
Calu-3 [8] = assay: as above
U2OS [9] = assay: as above
Caco-2 [10] = assay: as above
HepG2 [11] = assay: relative viability EC50 (midpoint between 100% and the lowest measured viability); higher = less toxic
Vero E6 [12] = assay: as above
Calu-3 [13] = assay: as above
U2OS [14] = assay: as above
Caco-2 [15] = assay: as above

| Compound | cell viability (HepG2 [1]; 1 nM) [%] | cell viability (HepG2 [1]; 10 nM) [%] | cell viability (HepG2 [1]; 100 nM) [%] | cell viability (HepG2 [1]; 1000 nM) [%] | cell viability (HepG2 [1]; 10000 nM) [%] | cell viability (Vero E6 [2]; 1 nM) [%] | cell viability (Vero E6 [2]; 10 nM) [%] | cell viability (Vero E6 [2]; 100 nM) [%] | cell viability (Vero E6 [2]; 1000 nM) [%] | cell viability (Vero E6 [2]; 10000 nM) [%] | cell viability (Calu-3 [3]; 1 nM) [%] | cell viability (Calu-3 [3]; 10 nM) [%] | cell viability (Calu-3 [3]; 100 nM) [%] | cell viability (Calu-3 [3]; 1000 nM) [%] | cell viability (Calu-3 [3]; 10000 nM) [%] | cell viability (U2OS [4]; 1 nM) [%] | cell viability (U2OS [4]; 10 nM) [%] | cell viability (U2OS [4]; 100 nM) [%] | cell viability (U2OS [4]; 1000 nM) [%] | cell viability (U2OS [4]; 10000 nM) [%] | cell viability (Caco-2 [5]; 1 nM) [%] | cell viability (Caco-2 [5]; 10 nM) [%] | cell viability (Caco-2 [5]; 100 nM) [%] | cell viability (Caco-2 [5]; 1000 nM) [%] | cell viability (Caco-2 [5]; 10000 nM) [%] | drug sensitivity score (HepG2 [6]) | drug sensitivity score (Vero E6 [7]) | drug sensitivity score (Calu-3 [8]) | drug sensitivity score (U2OS [9]) | drug sensitivity score (Caco-2 [10]) | relative viability EC50 (HepG2 [11]) [µM] | relative viability EC50 (Vero E6 [12]) [µM] | relative viability EC50 (Calu-3 [13]) [µM] | relative viability EC50 (U2OS [14]) [µM] | relative viability EC50 (Caco-2 [15]) [µM] |
| --- | --- | --- | --- | --- | --- | --- | --- | --- | --- | --- | --- | --- | --- | --- | --- | --- | --- | --- | --- | --- | --- | --- | --- | --- | --- | --- | --- | --- | --- | --- | --- | --- | --- | --- | --- |
| O=C(O)/C=C1\CCCc2ccccc2[C@H]1O (racemic) [NCS-382] | 108 | 96.5 | 102 | 99.1 | 87.2 | 104 | 97.2 | 103 | 99.1 | 101 | 93.4 | 95.3 | 99.3 | 95.5 | 101 | 96.7 | 102 | 96 | 102 | 97.2 | 98.6 | 99.3 | 91.8 | 97 | 88.7 | 0.1 | 0 | 0 | 0 | 0 | > 10 | > 10 | > 10 | > 10 | > 10 |
| OC[C@H]1NC[C@@H](O)[C@@H](O)[C@@H]1O [1-deoxymannojirimycin] | 109 | 96.2 | 94.5 | 93.1 | 97.7 | 99.1 | 93 | 98.2 | 96.8 | 107 | 106 | 96.8 | 97 | 95.4 | 90.8 | 96.8 | 102 | 95.8 | 100 | 108 | 95.3 | 96.8 | 98.2 | 97 | 104 | 0 | 0 | 0 | 0 | 0 | > 10 | > 10 | > 10 | > 10 | > 10 |
| CCCN(C/C=C/I)C1CCc2cccc(O)c2C1 (stereo not given) [8-hydroxy-PIPAT] | 101 | 105 | 111 | 104 | 83.4 | 97.7 | 99.7 | 100 | 99.3 | 92.9 | 101 | 101 | 112 | 103 | 99.5 | 103 | 100 | 102 | 97.6 | 97.8 | 107 | 95.3 | 100 | 93.8 | 101 | 0.2 | 0 | 0 | 0 | 0 | > 10 | > 10 | > 10 | > 10 | > 10 |
| C#Cc1cccc2c1c(C(=O)c1ccc(Cn3c(C)nc4cnccc43)c(F)c1)cn2C(=O)N(C)C [ABT-491] | 102 | 110 | 95.6 | 100 | 91.4 | 103 | 97.1 | 97.1 | 98.4 | 95.5 | 97.2 | 102 | 100 | 106 | 106 | 99.7 | 98.3 | 96.6 | 98.5 | 94.7 | 101 | 86.1 | 91.1 | 91.3 | 93.3 | 0 | 0 | 0 | 0 | 0 | > 10 | > 10 | > 10 | > 10 | > 10 |
| c1ccc(C(NCCNC(c2ccccc2)c2ccccc2)c2ccccc2)cc1 [AMN-082] | 103 | 92.4 | 108 | 98.9 | 87.4 | 104 | 95 | 95 | 93.6 | 114 | 99 | 97.7 | 96.9 | 95.7 | 92.2 | 96.5 | 97.8 | 96.7 | 105 | 93.8 | 98.9 | 104 | 96.5 | 94.8 | 94.8 | 0.2 | 0 | 0 | 0 | 0 | > 10 | > 10 | > 10 | > 10 | > 10 |
| COc1cc(C(=O)c2c(C)oc3c(O)c(OC)ccc23)cc(OC)c1OC [BNC105] | 86.2 | 60.4 | 42.6 | 35.7 | 38 | 34.9 | 22.7 | 22.8 | 27.9 | 30.4 | 106 | 54.6 | 33.7 | 39.2 | 30.9 | 100 | 44.7 | 20.9 | 19.3 | 19.7 | 62.8 | 39.6 | 41.4 | 37.9 | 41.1 | 24.7 | 38.3 | 27 | 31.5 | 30.3 | 0.0055 | < 0.001 | 0.0078 | 0.0073 | < 0.001 |
| Nc1n[nH]c2nc3ccccc3nc12 [CDK1-5-inhibitor] | 102 | 98.6 | 107 | 101 | 104 | 99.8 | 96.1 | 100 | 100 | 97.4 | 98.3 | 102 | 97.1 | 86 | 90.6 | 86.3 | 95.2 | 95.9 | 100 | 102 | 101 | 105 | 97.8 | 96.2 | 104 | 0 | 0 | 1.4 | 0 | 0 | > 10 | > 10 | > 10 | > 10 | > 10 |
| O=C1C2C=Nc3ccccc3C2=NN1c1ccc(Cl)cc1 (stereo not given) [CGS-9896] | 97.1 | 88.6 | 91 | 94.1 | 102 | 99.8 | 103 | 92.6 | 97.9 | 95.8 | 93.7 | 104 | 87.9 | 95.8 | 103 | 95.6 | 100 | 91.1 | 94 | 91.3 | 103 | 101 | 94.2 | 93 | 82.7 | 0 | 0 | 0 | 0 | 0.6 | > 10 | > 10 | > 10 | > 10 | > 10 |
| COc1ccc(OC[C@@H]2c3cc(OC)c(OC)cc3CCN2C(=O)c2cccc(Cl)c2)cc1 [CIQ] | 101 | 96.5 | 91.4 | 89.9 | 106 | 100 | 97.4 | 93.7 | 94 | 98.6 | 100 | 102 | 100 | 109 | 92.7 | 96.6 | 100 | 93.9 | 104 | 91.3 | 101 | 102 | 91.8 | 101 | 76.4 | 0 | 0 | 0 | 0 | 0.8 | > 10 | > 10 | > 10 | > 10 | > 10 |
| CC(=O)OCC(=O)[C@@]12N=C(C)O[C@@H]1C[C@H]1[C@@H]3CCC4=CC(=O)C=C[C@]4(C)[C@H]3[C@@H](O)C[C@@]12C [Deflazacort (Calcort)] | 109 | 103 | 110 | 102 | 95.9 | 99.1 | 99 | 102 | 102 | 102 | 102 | 92.9 | 97.2 | 80.9 | 93.1 | 99.7 | 95.6 | 99.7 | 94.4 | 97.7 | 97.8 | 93.3 | 92.8 | 101 | 97.9 | 0 | 0 | 0.4 | 0 | 0 | > 10 | > 10 | > 10 | > 10 | > 10 |
| NC(=O)C1CCCc2c1[nH]c1ccc(Cl)cc21 (stereo not given) [EX-527] | 93.3 | 107 | 98 | 110 | 106 | 94.1 | 107 | 93.7 | 98.9 | 109 | 107 | 101 | 107 | 96.6 | 94.7 | 95.9 | 93.2 | 105 | 93.4 | 98.1 | 99.7 | 94.8 | 98.5 | 92 | 103 | 0 | 0 | 0 | 0 | 0 | > 10 | > 10 | > 10 | > 10 | > 10 |
| Cc1ccc(Cl)cc1N(CC(=O)Nc1c(F)cccc1F)S(C)(=O)=O [FPH1-(BRD-6125)] | 100 | 107 | 104 | 94.5 | 108 | 98.3 | 103 | 97.6 | 97.2 | 99.1 | 110 | 93.4 | 97.8 | 105 | 87.3 | 97.7 | 103 | 105 | 101 | 97.8 | 104 | 97.2 | 111 | 99.7 | 107 | 0 | 0 | 0 | 0 | 0 | > 10 | > 10 | > 10 | > 10 | > 10 |
| N=C(N)Nc1ccc2[nH]c3c(c2c1)C[C@@]1(O)[C@H]2Cc4ccc(O)c5c4[C@@]1(CCN2CC1CC1)[C@H]3O5 [GNTI] | 99 | 122 | 111 | 98.2 | 88.1 | 101 | 97.4 | 104 | 104 | 101 | 93.8 | 92.7 | 98.3 | 102 | 106 | 99.7 | 93.5 | 101 | 101 | 104 | 99.7 | 95.2 | 99.4 | 95.6 | 102 | 0.1 | 0 | 0 | 0 | 0 | > 10 | > 10 | > 10 | > 10 | > 10 |
| CN(CCOc1ccc(C[C@H](Nc2ccccc2C(=O)c2ccccc2)C(=O)O)cc1)c1ccccn1 [GW-1929] | 92.2 | 104 | 81.5 | 85.8 | 106 | 92 | 90.2 | 80.3 | 82.3 | 90.2 | 111 | 112 | 120 | 116 | 95.6 | 98.3 | 96.1 | 99.3 | 98.7 | 98.2 | 95.1 | 96.3 | 107 | 99.5 | 85.5 | 0 | 0 | 0 | 0 | 0.2 | > 10 | > 10 | > 10 | > 10 | > 10 |
